Source: ChEMBL document CHEMBL5727197, “Bicyclic urea, thiourea, guanidine and cyanoguanidine compounds useful for the treatment of pain” (2019)

molecular target: High affinity nerve growth factor receptor (Homo sapiens, UniProt P04629); experiment: Kinase Binding Assay: TrkA binding activity was determined in a TrkA LanthaScreen™ Eu Kinase Binding Assay. 5 nM His-tagged recombinant human TrkA (6HIS tagged cytoplasmic domain from Invitrogen, Catalog No. PV3144) was incubated with 4 nM Alexa-Fluor® Tracer 236 (Invitrogen Cat. No. PV5592), 2 nM biotinylated anti-His (Invitrogen Cat. No. PV6090), and 2 nM europium-labeled Streptavidin (Invitrogen Cat. No. PV5899), in buffer (25 mM MOPS, pH 7.5, 5 mM MgCl2, 0.005% Triton X-100). Three fold serial dilutions of compounds of the invention in DMSO were added to a final percentage of 2% DMSO. After 60-minute incubation at 22° C., the reaction was measured using the EnVision mutlimode plate reader (PerkinElmer) via TR-FRET dual wavelength detection at […]. The percent of control was calculated using a ratiometric emission factor.
Sequence (P04629 whole entry, the tested form may be a part): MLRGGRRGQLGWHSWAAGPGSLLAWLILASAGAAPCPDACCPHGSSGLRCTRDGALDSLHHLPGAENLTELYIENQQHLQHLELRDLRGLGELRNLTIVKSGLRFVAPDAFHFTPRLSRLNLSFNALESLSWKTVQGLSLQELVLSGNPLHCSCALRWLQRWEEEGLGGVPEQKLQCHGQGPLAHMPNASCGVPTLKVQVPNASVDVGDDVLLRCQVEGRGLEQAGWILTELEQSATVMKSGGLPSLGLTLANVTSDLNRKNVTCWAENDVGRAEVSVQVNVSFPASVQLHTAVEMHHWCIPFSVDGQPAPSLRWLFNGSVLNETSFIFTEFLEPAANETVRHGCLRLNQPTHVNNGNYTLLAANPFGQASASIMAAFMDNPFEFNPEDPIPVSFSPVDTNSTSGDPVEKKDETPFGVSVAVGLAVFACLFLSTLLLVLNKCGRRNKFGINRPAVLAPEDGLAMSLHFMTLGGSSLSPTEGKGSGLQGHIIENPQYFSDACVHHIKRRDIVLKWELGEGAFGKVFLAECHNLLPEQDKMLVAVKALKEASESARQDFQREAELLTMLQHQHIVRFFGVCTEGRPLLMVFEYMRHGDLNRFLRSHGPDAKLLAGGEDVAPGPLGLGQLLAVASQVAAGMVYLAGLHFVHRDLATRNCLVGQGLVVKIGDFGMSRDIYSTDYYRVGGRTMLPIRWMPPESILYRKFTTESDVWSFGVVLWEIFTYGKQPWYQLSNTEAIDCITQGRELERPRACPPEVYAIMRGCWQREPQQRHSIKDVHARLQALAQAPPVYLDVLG

IC50, < 100 nM:
CC(C)(C)OC(=O)N1CCO[C@@H](COc2nn(-c3ccccc3)c(NC(=O)N[C@@H]3c4ccccc4C4(CC4)[C@H]3O)c2Cl)C1
Cc1c(-c2ccc(=O)n(C)c2)nn(-c2ccccc2)c1NC(=O)NC1CN(CC(F)(F)F)Cc2ccccc21 (stereo not drawn)
CC1(C)C[C@@H](O)[C@H](NC(=O)Nc2c3c(nn2-c2ccccc2)COC3)c2ccccc21 (relative stereo)
